Laboratory results published in US20110212948A1 (priority 2008, published 2011).
Like-named read-outs stand apart in the source and are kept apart here.

What was measured:
[1] = Multiple dose study: peak and trough plasma meloxicam concentrations; format: in vivo, foals
Procedure: Blood for ‘trough’ serum levels was collected from foals immediately prior to administration of morning treatment. ‘Peak’ plasma concentrations were determined from blood samples collected 2 hours following administration of the morning treatment (as per the schedule above).

[2] = Multiple dose study: gastroscopy; format: in vivo, foals
[3] = Faecal occult blood testing with guaiac-based slides (Hemoccult Sensa); format: in vivo; details: treated and control foals, all occasions
Procedure: Faecal occult blood testing using guaiac-based slides (Hemoccult Sensa, Beckman Coulter Australia Pty Ltd, Gladesville, NSW) was evaluated for the detection of gastrointestinal bleeding in treated and control foals. This technique has been reported as a sensitive method for identifying gastric or right dorsal colon ulceration in adult horses (Pellegrini 2005). Faecal samples were collected on DSP days from all foals and processed according to the manufacturer's instructions. Tests were negative for blood (haemoglobin) on all occasions.

[4] = current study, foals, single oral dose 0.6 mg/kg, mean ± SD
[5] = in vivo, 0.6 mg/kg
[6] = adult horses, cited from earlier work
[7] = adult horses, cited from earlier work; remark: listed apart in the source
[8] = Multiple dose study: veterinary examination, haematology and serum biochemistry; details: 0.6 mg/kg every 12 hours for 14 days; except serum cholesterol
Procedure: Six foals were available for inclusion in this part of the study and were randomly assigned to treatment (four foals) or control groups (two foals). […] To ensure foals were recruited into the study within 4 weeks of birth, the study was performed twice, with 2 treated and one control foal in each replicate.
Foals were examined twice daily for the duration of the study. Staff responsible for veterinary examination of foals were blinded to treatment.
Peripheral blood samples were submitted for routine haematology and serum biochemistry at a commercial laboratory (Idexx Laboratories, Rydalmere, NSW) twice weekly (treatment days 0, 2, 6, 9, 13 and 16). Gastroscopy and urine analysis (Dip Stik and urine enzyme analysis1) were performed weekly on all foals.

[9] = Bioequivalence study (CML039) Reference
[10] = Bioequivalence study (CML039) Test

Accumulation of drug in serum ([1]; foals, 0.6 mg/kg by mouth every 12 hours for 14 days): did not appear to accumulate | concentration at 14 days ([1]; horse, in vivo, foals less than 6 weeks, 0.6 mg/kg by mouth every 12 hours): 100 to 1000 ng/mL | concentration at 2 h ([1]; horse, in vivo, foals, 0.6 mg/kg by mouth every 12 hours for 14 days, 2 h after morning dose, read-out: Peak serum concentrations with repeated dosing): 500 to 1200 ng/mL | Gastroscopy finding, margo plicatus of a treated foal (FIG. 18) ([2]; Day 7 of multiple dose study): normal margo plicatus | Gastroscopy finding, treated foal F8 (FIG. 21) ([2]; Day 7 of multiple dose study, erythemia already present before single dose): superficial erosions of squamous mucosa | Faecal occult blood (haemoglobin) [3]: negative | Area under curve [4]: 3870.3 ng/mL/h | Albumin, mean post-Tx (±sem) ([5]; po): 29 (±1) g/L | Creatinine, median post-Tx ([5]; po): 0.09 mmol/L | Glucose, mean post-Tx (±sem) ([5]; po): 8.8 (±0.6) mmol/L | Haemoglobin, mean post-Tx (±sem) ([5]; po): 123 (±4) g/L | PCV, mean post-Tx (±sem) ([5]; po): 35 (±1) % | Potassium, median post-Tx ([5]; po): 4.0 mmol/L | Sodium, mean post-Tx (±sem) ([5]; po): 138 (±1) mmol/L | Urea, mean post-Tx (±sem) ([5]; po): 2.1 (±0.1) mmol/L | Haematology and serum biochemistry, treated vs control foals [8]: no significant differences
Structure (SMILES): Cc1cnc(NC(=O)C2=C(O)c3ccccc3S(=O)(=O)N2C)s1 [meloxicam]
Gastroscopy finding, margo plicatus of same treated foal (FIG. 19) ([2]; Day 14 of multiple dose study): small, well circumscribed and very superficial ulcer | Gastric mucosal damage on gastroscopic examination ([2]; all foals, 0.6 mg/kg every 12 hours for 14 days): failed to identify evidence of significant gastric mucosal damage | Gastroscopy finding, treated foal F8 (FIG. 22) ([2]; following 14 days of treatment): no evidence of ongoing mucosal ulceration | Adverse effects after a single oral dose (physical examination) [5]: no adverse effects | Area under curve [6, 9]: 10752.4 ng/mL/h | Cmax (oral admin) [6, 9]: 777.5 ng/mL | Tmax (oral admin) [6, 9]: 3.8 h | Area under curve [6, 10]: 11281.0 ng/mL/h | Tmax (oral admin) [6, 10]: 2.6 h | Cmax ([7]; Lees et al 1991 (IV administration)): 9230 ng/mL | Area under curve ([7]; Lees et al 1991): 14530 ng/mL/h | Cmax ([7]; Little et al 2007 (IV administration)): 9780 ng/mL | Area under curve ([7]; Little et al 2007): 33440 ng/mL/h | Cmax (oral admin) ([7]; Toutain et al 2004b): 2580 ng/mL | Bioavailability (fasted) ([7]; fasted, Toutain et al 2004b): 85.3 | Bioavailability (fed) ([7]; fed, Toutain et al 2004b): 95.9
